The results in this text go back to patent US12459974B2, “Bicyclic peptide ligands specific for Nectin-4” (priority 2018, dated 2025).

The target of experiment [1] is T1, human Nectin-4 (Homo sapiens, UniProt Q96NY8).
T1 sequence (Q96NY8 32-510): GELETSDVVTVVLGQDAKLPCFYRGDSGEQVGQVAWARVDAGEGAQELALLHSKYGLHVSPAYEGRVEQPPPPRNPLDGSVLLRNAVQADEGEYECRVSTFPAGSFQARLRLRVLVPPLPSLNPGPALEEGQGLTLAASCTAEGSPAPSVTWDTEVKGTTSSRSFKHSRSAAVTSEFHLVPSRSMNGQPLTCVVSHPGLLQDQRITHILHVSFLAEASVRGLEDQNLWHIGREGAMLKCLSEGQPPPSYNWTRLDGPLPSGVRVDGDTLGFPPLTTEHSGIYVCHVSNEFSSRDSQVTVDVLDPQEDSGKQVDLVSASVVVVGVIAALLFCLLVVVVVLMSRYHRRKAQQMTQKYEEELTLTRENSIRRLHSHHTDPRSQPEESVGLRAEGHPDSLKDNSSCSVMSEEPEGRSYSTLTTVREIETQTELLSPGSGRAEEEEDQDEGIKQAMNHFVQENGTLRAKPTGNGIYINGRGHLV
As to the kind of experiment: Nectin-4 direct binding assay (fluorescence polarisation). The note with it: fluorescently tagged peptide, TATA scaffold. Here is the method: Affinity of the peptides of the invention for human Nectin-4 (Ki) was determined using a fluorescence polarisation assay, in accordance with the methods disclosed in WO 2016/067035. Peptides of the invention with a fluorescent tag (either fluorescein, SIGMA or Alexa Fluor488™, Fisher Scientific) were diluted to 2.5 nM in PBS with 0.01% tween 20 or 50 mM HEPES with 100 mM NaCl and 0.01% tween pH 7.4 (both referred to as assay buffer). This was combined with a titration of protein in the same assay buffer as the peptide to give 1 nM peptide in a total volume of 25 μL in a black walled and bottomed low bind low volume 384 well plates, typically 5 μL assay buffer, 10 μL protein then 10 μL fluorescent peptide. […] Measurements were conducted on a BMG PHERAstar FS equipped with an “FP 485 520 520” optic module which excites at 485 nm and detects parallel and perpendicular emission at 520 nm. The PHERAstar FS was set at 25° C. with 200 flashes per well and a positioning delay of 0.1 second, with each well measured at 5 to 10 minute intervals for 60 minutes. The gain used for analysis was determined for each tracer at the end of the 60 minutes where there was no protein in the well. Data was analysed using Systat Sigmaplot version 12.0. mP values were fit to a user defined quadratic equation to generate a Kd value: f=ymin+(ymax−ymin)/Lig*((x+Lig+Kd)/2-sqrt((((x+Lig+Kd)/2)^2)−(Lig*x))). […]

In experiment [2] the target is T1, human Nectin-4. The experiment can be described thus: Nectin-4 competition binding assay (fluorescence polarisation). As to conditions: competition with fluorescent peptide SEQ ID NO: 217; read-out: Ki. In a few lines:
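Ki derived by cubic-equation fit of mP data, with tracer peptide concentration, its Kd and Nectin-4 level as fixed inputs. Competition set up by adding 2-fold peptide dilutions (≤5% DMSO), then Nectin-4, then fluorescent peptide; polarisation measured as for direct binding.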
Background: Polarisation of emitted light reports the rotation of a fluorescent probe.

*1 amine or outer side, *2 acyl side, *3 side chain or, on linkers, in order; H or OH if unused. Where a SMILES comes first, the peptide text is derived from it. Bridges are numbered along the chain shown (N, C = ends). TATA = O=C(CC[*:1])N1CN(C(=O)CC[*:2])CN(C(=O)CC[*:3])C1

The term Ki denotes a measure of affinity in units of concentration, obtained from inhibition or displacement. `CC[C@H](C)[C@@H]1NC(=O)[C@H](CCCNC(=N)N)NC(=O)[C@H](CC(N)=O)NC(=O)[C@@H]2CSCCC(=O)N3CN(CN(C3)C(=O)CCSC[C@@H](C(=O)N[C@@H](C)C(N)=O)NC1=O)C(=O)CCSC[C@H](NC(=O)[C@H](Cc1c[nH]c3ccccc13)NC(=O)[C@H](CCCCN)NC(=O)[C@@H](N)CCC(N)=O)C(=O)N[C@@H](C)C(=O)N1CCC[C@H]1C(=O)N[C@@H](CC(C)C)C(=O)N[C@@H](CO)C(=O)N[C@@H](CC(=O)O)C(=O)N[C@@H](Cc1ccc(O)cc1)C(=O)N[C@@H](Cc1c[nH]c3ccccc13)C(=O)N2` [BCY3400, QKW-(SEQ ID NO: 34)-A] (H-QKWCAPLSDYWCNRICA-NH2; linker 4-12-16 via TATA; N-terminus and C-terminus assumed): the results for the Ki on human Nectin-4 [1] and on human Nectin-4 [2] were 72 nM and 47 nM, respectively.
